Assay results from US5675007A (priority 1994, dated 1997).
pIC50: −log10 of the molar value.

How the values were obtained:
[1] = molecular target: muscarinic receptors ([^3 H]-OXO-M binding); test: Inhibition of [^3 H]-oxotremorine-M ([^3 H]-OXO-M) binding, rat cerebral cortex; design: species or system rat (male Hooded Lister); details: [^3 H]-OXO-M 1.88 nM, 37° C., geometric mean, n = 2
[2] = molecular target: muscarinic receptors ([^3 H]-QNB binding); design: species or system rat (male Hooded Lister); details: rat cerebral cortex; [^3 H]-QNB 0.27 nM; geometric mean; n = 2
[3] = Functional studies in vivo: salivation; design: species or system mouse (male CD1); details: mouse, read-out: Salivation ED50 (dose inducing 50% of the maximum score)
Protocol: (§1) Male mice (CD1, Charles River UK, 25-35 g) were used in the in vivo experiments. Animals were housed in groups of 10 and allowed food and water ad libitum. Two hours prior to the experiment the animals were rehoused in groups of 5 and allowed to acclimatize to their new environment. Each group was assigned one dose of test compound.
(§2) Test compounds or vehicle were administered by either the subcutaneous (sc) or oral (po) routes. Animals were subjectively assessed for signs of salivation and body tremor 15, 30, 45, 60, 90, 120, 150, 180, 240 and 300 minutes post dose, using a scoring system: 0=absent; 1=mild; 2=moderate; 3=severe. Changes in core body temperature, a measure of central activity, were recorded at the same timepoints using a rectal probe (Comark Electronic Thermometer Type 9001 )

[4] = Functional studies in vivo: hypothermia (core body temperature); design: species or system mouse (male CD1); details: mouse, 95% CL on next line
Protocol: as §1, §2

[5] = Functional studies in vivo: body tremor; design: species or system mouse (male CD1); details: mouse, read-out: Tremor ED50 (dose inducing 50% of the maximum score)
Protocol: as §1, §2

With `CO/N=C(\C#N)[C@H]1C[N+]2([O-])CCC1CC2` [Compound X, [R-(Z)]-α-(methoxyimino)-α-(1-azabicyclo[2.2.2]oct-3-yl)acetonitrile-1-oxide] the pIC50 [1] was 5.54, the pIC50 [2] was 4.16 and the ED50 ([3]; oral) was less than 0.3 mg/kg. For the same compound, the ED50 ([3]; sc, subcutaneous, 95% CL on next line) was 2.38 mg/kg, the “Hypothermia ED3° (dose inducing 3° fall in core body temperature)” value ([4]; oral) was 5.8 mg/kg and the “Hypothermia ED3° (dose inducing 3° fall in core body temperature)” value ([4]; subcutaneous) was 21.3 mg/kg. The ED50 ([5]; oral) was greater than 30 mg/kg and the ED50 ([5]; sc, subcutaneous) was greater than 30 mg/kg.
